From patent US12384770B2, “Heterocyclic compound” (Takeda Pharmaceutical Company Limited, priority 2019, dated 2025) come the findings set out here.

Molecules are shown by their SMILES.

One assay concerns the target T1, HDAC6 enzyme (Homo sapiens, UniProt Q9UBN7).
T1 construct: HDAC6 enzyme prepared by transducing full length HDAC6 gene into Sf-9 insect cells; GST; purchased SignalChem; host or cells: Sf-9 insect cells
T1 sequence (Q9UBN7 1-1215): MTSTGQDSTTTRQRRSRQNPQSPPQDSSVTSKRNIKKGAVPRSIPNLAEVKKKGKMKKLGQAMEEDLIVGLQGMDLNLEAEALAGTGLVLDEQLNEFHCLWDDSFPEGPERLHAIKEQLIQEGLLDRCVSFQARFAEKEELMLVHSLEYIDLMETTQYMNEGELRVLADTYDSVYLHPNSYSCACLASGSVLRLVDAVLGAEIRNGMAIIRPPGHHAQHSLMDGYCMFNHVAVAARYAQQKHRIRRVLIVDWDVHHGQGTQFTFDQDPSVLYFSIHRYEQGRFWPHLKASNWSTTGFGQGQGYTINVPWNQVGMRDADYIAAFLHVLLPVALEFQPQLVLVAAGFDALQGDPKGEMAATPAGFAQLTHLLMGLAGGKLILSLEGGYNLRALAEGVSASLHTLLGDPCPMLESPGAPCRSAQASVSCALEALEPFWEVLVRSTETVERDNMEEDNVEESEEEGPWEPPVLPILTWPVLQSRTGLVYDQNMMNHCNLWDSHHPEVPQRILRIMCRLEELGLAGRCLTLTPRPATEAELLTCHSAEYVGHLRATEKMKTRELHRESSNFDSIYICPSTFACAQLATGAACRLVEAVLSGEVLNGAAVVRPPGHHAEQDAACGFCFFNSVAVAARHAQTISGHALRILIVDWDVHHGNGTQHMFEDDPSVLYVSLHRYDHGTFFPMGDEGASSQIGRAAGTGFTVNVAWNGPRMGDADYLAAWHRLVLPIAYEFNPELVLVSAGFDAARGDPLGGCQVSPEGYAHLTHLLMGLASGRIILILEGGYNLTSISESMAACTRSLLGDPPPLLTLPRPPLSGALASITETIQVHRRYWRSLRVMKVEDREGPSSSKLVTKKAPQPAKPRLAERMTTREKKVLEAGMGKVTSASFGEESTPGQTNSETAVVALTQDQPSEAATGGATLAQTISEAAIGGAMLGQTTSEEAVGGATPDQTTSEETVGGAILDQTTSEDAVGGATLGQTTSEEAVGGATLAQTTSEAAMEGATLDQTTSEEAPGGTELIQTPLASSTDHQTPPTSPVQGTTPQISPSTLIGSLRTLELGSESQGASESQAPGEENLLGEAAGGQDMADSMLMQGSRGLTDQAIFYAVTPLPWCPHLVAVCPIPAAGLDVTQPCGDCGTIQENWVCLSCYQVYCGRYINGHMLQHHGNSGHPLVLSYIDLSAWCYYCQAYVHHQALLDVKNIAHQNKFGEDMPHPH
Kind of assay: HDAC6 enzyme inhibitory assay (HDAC-Glo I/II Assay kit). In kind it is biochemical. Particulars: wells without enzyme = 100% inhibition. The protocol:
Experimental Example 1 HDAC6 Enzyme Inhibitory Assay
HDAC6 enzyme prepared by transducing full length HDAC6 gene into Sf-9 insect cells and purifying by GST affinity column were purchased from SignalChem. Using this enzyme, HDAC6 enzyme inhibitory activity of the compound of the present invention were evaluated. Enzymes were used after preserved at −70° C. HDAC6 enzyme inhibitory activity of the compound of the present invention was measured using HDAC-Glo™ I/II Assay kit (Promega) according to the following experimental method. The test compound diluted with assay buffer (24 mM Tris-HCl (pH 7.5), 1 mM MgCl2, 0.35 mM KCl, 135 mM NaCl, 0.6 mM Glutathione, 0.01% Tween-20) was added to a 384-well plate by each 2 μL. Then, HDAC6 enzyme solution diluted with assay buffer was added thereto by each 4 μL, and the plate was incubated at room temperature for 60 min. After incubated, HDAC substrate-Developer solution prepared according to Promega protocol attached to the assay kit was added to the 384-well plate by each 2 μL, and the enzyme reaction was started. After reacting at room temperature for 20 min, luminescence level was measured using plate reader Envision (PerkinElmer). The inhibitory activity of each compound of Example was calculated as a relative activity value when luminescence level in wells without enzyme is considered as 100% inhibition.
On to `O=C1c2cc(-c3nnc(C(F)F)o3)ccc2CN1[C@H](c1ccccn1)[C@@H](O)c1cccc(C(F)(F)F)n1` (single isomer, unassigned) [Example 120, 6-[5-(difluoromethyl)-1,3,4-oxadiazol-2-yl]-2-{(1R*,2R*)-2-hydroxy-1-(pyridin-2-yl)-2-[6-(trifluoromethyl)pyridin-2-yl]ethyl}-2,3-dihydro-1H-isoindol-1-one], for which the “HDAC6 inhibitory rate (%) (10 μM)” value was determined as 101%.

The same assay, now with this note: wells without enzyme = 100% inhibition, 10 µM.
With `O=C1c2cc(-c3nnc(C(F)F)o3)ccc2CN1[C@H](c1ncccn1)[C@@H](O)c1cccc(F)c1` (single isomer, unassigned) [Example 69, 6-[5-(difluoromethyl)-1,3,4-oxadiazol-2-yl]-2-[(1R*,2S*)-2-(3-fluorophenyl)-2-hydroxy-1-(pyrimidin-2-yl)ethyl]-2,3-dihydro-1H-isoindol-1-one], the “HDAC6 inhibitory rate (%) (10 μM)” value turned out to be 100%.

The same assay, now with this note: wells without enzyme = 100% inhibition, read-out: HDAC6 inhibitory rate (%) (10 μM).
For the compound `O=C1c2cc(-c3nnc(C(F)F)o3)ccc2CN1[C@H](c1ccc(F)cc1)[C@@H](O)C1CC1` (racemic) [Example 19, 2-[(1RS,2SR)-2-cyclopropyl-1-(4-fluorophenyl)-2-hydroxyethyl]-6-[5-(difluoromethyl)-1,3,4-oxadiazol-2-yl]-2,3-dihydro-1H-isoindol-1-one], the inhibition at 10 µM was 99%.
The same measure, in the same setting: to `O=C1c2cc(-c3nnc(C(F)F)o3)ccc2CN1[C@H](c1ncccn1)[C@@H](O)c1ccc(Cl)cc1` (racemic) [Example 93, 2-[(1RS,2SR)-2-(4-chlorophenyl)-2-hydroxy-1-(pyrimidin-2-yl)ethyl]-6-[5-(difluoromethyl)-1,3,4-oxadiazol-2-yl]-2,3-dihydro-1H-isoindol-1-one] belongs 100%.
As for `O=C1c2cc(-c3nnc(C(F)F)o3)ccc2CN1[C@H](c1ncccn1)[C@@H](O)c1ccc(F)cc1` (racemic) [Example 134, 6-[5-(difluoromethyl)-1,3,4-oxadiazol-2-yl]-2-[(1RS,2SR)-2-(4-fluorophenyl)-2-hydroxy-1-(pyrimidin-2-yl)ethyl]-2,3-dihydro-1H-isoindol-1-one], the inhibition at 10 µM was 101%.
Turning to `O=C1c2cc(-c3nnc(C(F)F)o3)ccc2CN1[C@H](C1CC1)[C@@H](O)c1ccc(Cl)cn1` (racemic) [Example 65, 2-[(1RS,2RS)-2-(5-chloropyridin-2-yl)-1-cyclopropyl-2-hydroxyethyl]-6-[5-(difluoromethyl)-1,3,4-oxadiazol-2-yl]-2,3-dihydro-1H-isoindol-1-one], the inhibition at 10 µM is 98%.
On the same count and under the same terms, to `O=C1c2cc(-c3nnc(C(F)F)o3)ccc2CN1[C@H](c1cccc(F)n1)[C@@H](O)c1cccc(F)c1` (single isomer, unassigned) [Example 89, 6-[5-(difluoromethyl)-1,3,4-oxadiazol-2-yl]-2-[(1R*,2S*)-2-(3-fluorophenyl)-1-(6-fluoropyridin-2-yl)-2-hydroxyethyl]-2,3-dihydro-1H-isoindol-1-one] belongs 100%; to `O=C1c2cc(-c3nnc(C(F)F)o3)ccc2CN1[C@H](c1ccc(F)cn1)[C@@H](O)c1cccc(F)n1` (single isomer, unassigned) [Example 66, 6-[5-(difluoromethyl)-1,3,4-oxadiazol-2-yl]-2-[(1R*,2R*)-1-(5-fluoropyridin-2-yl)-2-(6-fluoropyridin-2-yl)-2-hydroxyethyl]-2,3-dihydro-1H-isoindol-1-one], 100%.
On to `O=C1c2cc(-c3nnc(C(F)F)o3)ccc2CN1[C@H](c1ccc(F)cc1)[C@H](O)c1cccc(F)c1` (racemic) [Example 147, 6-[5-(difluoromethyl)-1,3,4-oxadiazol-2-yl]-2-[(1RS,2RS)-2-(3-fluorophenyl)-1-(4-fluorophenyl)-2-hydroxyethyl]-2,3-dihydro-1H-isoindol-1-one], for which the inhibition at 10 µM came out at 99%.
On to `O=C1c2cc(-c3nnc(C(F)F)o3)ccc2CN1[C@H](c1ccccn1)[C@@H](O)c1ccc(F)cc1` (single isomer, unassigned) [Example 36, 6-[5-(difluoromethyl)-1,3,4-oxadiazol-2-yl]-2-[(1R*,2S*)-2-(4-fluorophenyl)-2-hydroxy-1-(pyridin-2-yl)ethyl]-2,3-dihydro-1H-isoindol-1-one], for which the inhibition at 10 µM came out at 101%.
As for `O=C1c2cc(-c3nnc(C(F)F)o3)ccc2CN1[C@H](C1CCOCC1)[C@@H](O)c1cc(F)cc(Cl)c1` (racemic) [Example 106, 2-[(1RS,2SR)-2-(3-chloro-5-fluorophenyl)-2-hydroxy-1-(oxan-4-yl)ethyl]-6-[5-(difluoromethyl)-1,3,4-oxadiazol-2-yl]-2,3-dihydro-1H-isoindol-1-one], the inhibition at 10 µM is 100%.
In the case of `O=C1c2cc(-c3nnc(C(F)F)o3)ccc2CN1[C@H](c1ncccn1)[C@@H](O)c1cccc(Cl)c1` (racemic) [Example 133, 2-[(1RS,2SR)-2-(3-chlorophenyl)-2-hydroxy-1-(pyrimidin-2-yl)ethyl]-6-[5-(difluoromethyl)-1,3,4-oxadiazol-2-yl]-2,3-dihydro-1H-isoindol-1-one], the inhibition at 10 µM was 100%.
The same measure, in the same setting: under `O=C1c2cc(-c3nnc(C(F)F)o3)ccc2CN1[C@H](c1ccc(F)cc1)[C@@H](O)C1CCOCC1` (racemic) [Example 30, 6-[5-(difluoromethyl)-1,3,4-oxadiazol-2-yl]-2-[(1RS,2SR)-1-(4-fluorophenyl)-2-hydroxy-2-(oxan-4-yl)ethyl]-2,3-dihydro-1H-isoindol-1-one] stands 99%; under `N#Cc1cccc([C@H]([C@@H](O)c2ccccc2)N2Cc3ccc(-c4nnc(C(F)F)o4)cc3C2=O)c1` (racemic) [Example 40, 3-[(1RS,2SR)-1-{6-[5-(difluoromethyl)-1,3,4-oxadiazol-2-yl]-1-oxo-1,3-dihydro-2H-isoindol-2-yl}-2-hydroxy-2-phenylethyl]benzonitrile], 100%.
Same read-out and setting: under `O=C1c2cc(-c3nnc(C(F)F)o3)ccc2CN1[C@H](c1ncccn1)[C@@H](O)c1cccc(F)c1` (single isomer, unassigned) [Example 68, 6-[5-(difluoromethyl)-1,3,4-oxadiazol-2-yl]-2-[(1R*,2S*)-2-(3-fluorophenyl)-2-hydroxy-1-(pyrimidin-2-yl)ethyl]-2,3-dihydro-1H-isoindol-1-one] stands 101%; under `O=C1c2cc(-c3nnc(C(F)F)o3)ccc2CN1[C@H](c1ccccn1)[C@@H](O)c1cccc(Cl)n1` (single isomer, unassigned) [Example 114, 2-[(1R*,2R*)-2-(6-chloropyridin-2-yl)-2-hydroxy-1-(pyridin-2-yl)ethyl]-6-[5-(difluoromethyl)-1,3,4-oxadiazol-2-yl]-2,3-dihydro-1H-isoindol-1-one], 99%.
Same read-out and setting: under `O=C1c2cc(-c3nnc(C(F)F)o3)ccc2CN1[C@H](c1cccnn1)[C@@H](O)c1ccc(F)c(F)c1` (single isomer, unassigned) [Example 108, 6-[5-(difluoromethyl)-1,3,4-oxadiazol-2-yl]-2-[(1R*,2S*)-2-(3,4-difluorophenyl)-2-hydroxy-1-(pyridazin-3-yl)ethyl]-2,3-dihydro-1H-isoindol-1-one] stands 100%; under `O=C1c2cc(-c3nnc(C(F)F)o3)ccc2CN1[C@H](c1ccc(F)cn1)[C@H](O)c1ccccn1` (racemic) [Example 144, 6-[5-(difluoromethyl)-1,3,4-oxadiazol-2-yl]-2-[(1RS,2SR)-1-(5-fluoropyridin-2-yl)-2-hydroxy-2-(pyridin-2-yl)ethyl]-2,3-dihydro-1H-isoindol-1-one], 100%.
